Experimental data reported in patent publication US9512114B2, “Substituted aminopyrimidine compounds and methods of use” (Calitor Sciences, LLC, priority 2013, dated 2016).

Legend:
PI3K (p110δ/p85α) (h) = PI3K (p110δ/p85α) (h) (Homo sapiens (Human), UniProt O00329); assay: PI3K (p110δ/p85α) (h) non-radioactive HTRF kinase assay; type: biochemical; conditions: performed at Millipore UK Ltd
Description: The above assay procedure can be used to determine the IC50 for inhibition and/or the inhibition constant, Ki.
PI3K (p110δ/p85α) (h) [Non-Radioactive Assay]
PI3K (p110δ/p85α) (h) is incubated in assay buffer containing 10 μM phosphatidylinositol-4, 5-bisphosphate and MgATP (concentration as required). The reaction is initiated by the addition of the MgATP mix. After incubation for 30 minutes at room temperature, the reaction is stopped by the addition of stop solution containing EDTA and biotinylated phosphatidylinositol-3,4,5-trisphosphate. Finally, detection buffer is added, which contains europium-labelled anti-GST monoclonal antibody, GST-tagged GRP1 PH domain and streptavidin-allophycocyanin. The plate is then read in timeresolved fluorescence mode and the homogenous time-resolved fluorescence (HTRF) signal is determined according to the formula HTRF=10000×(Em665 nm/Em620 nm).
The kinase assays described herein were performed at Millipore UK Ltd, Dundee Technology Park, Dundee DD2 1SW, UK.

[1] = Compound stability in rat liver microsomes; type: in vitro ADME; conditions: pH 7.4; for CLint scaled at 5 μM: liver microsomes, in vivo CLint extrapolated from rat liver microsome incubation; for half-life at 5 μM: rat liver microsomes 0.5 mg protein/mL, compound 5 μM, NADPH 1.0 mM, 37° C., read-out: Rat T1/2
Description: (§1) The LC/MS/MS system used in the analysis consists of an Agilent 1200 Series vacuum degasser, binary pump, well-plate autosampler, thermostatted column compartment, the Agilent G6430 Triple Quadrupole Mass Spectrometer with an electrosprayionization (ESI) source. Quantitative analysis was carried out using MRM mode. The parameters for MRM transitions are in the Table A.
(§2) An Agilent XDB-C18, 2.1×30 mm, […] column was used for the analysis. 5 μL of the samples were injected. Analysis condition: The mobile phase was 0.1% formic acid in water (A) and 0.1% formic acid in methanol (B). The flow rate was 0.4 mL/min. And the gradient of Mobile phase was in the Table B.
(§3) Alternatively, an Agilent 6330 series LC/MS/MS spectrometer equipped with G1312A binary pumps, a G1367A autosampler and a G1314C UV detector were used in the analysis. An ESI source was used on the LC/MS/MS spectrometer. The analysis was done in positive ion mode as appropriate and the MRM transition for each analyte was optimized using standard solution. A Capcell MP-C18 100×4.6 mm I.D., […] column (Phenomenex, Torrance, Calif., USA) was used during the analysis. The mobile phase was 5 mM ammonia acetate, 0.1% MeOH in water (A): 5 mM ammonia acetate, 0.1% MeOH in acetonitrile (B) (70:30, v/v). The flow rate was 0.6 mL/min. Column was maintained at ambient temperature. 20 μL of the samples were injected.
(§4) Human or rat liver microsomes incubations were conducted in duplicate in polypropylene tubes. The typical incubation mixtures consisted of human or rat liver microsomes (0.5 mg protein/mL), compounds of interest (5 μM) and NADPH (1.0 mM) in a total volume of 200 μL potassium phosphate buffer (PBS, 100 mM, pH 7.4). Compounds were dissolved in DMSO and diluted with PBS such that the final concentration of DMSO was 0.05%. The enzymatic reactions were commenced with the addition of protein after a 3-min preincubation and incubated in a water bath open to the air at 37° C. Reactions were terminated at various time points (0, 5, 10, 15, 30, 60 min) by adding equal volume of ice-cold acetonitrile. The samples were stored at −80° C. until LC/MS/MS assays.
(§5) The concentrations of compounds in the incubation mixtures of human or rat liver microsomes were determined by a LC/MS/MS method. The ranges of the linearity in the concentration range were determined for each tested compounds.
(§6) A parallel incubation was performed using denatured microsomes as the negative control, and reactions were terminated at various time points (0, 15, 60 min) after incubation at 37° C.
(§7) Dextromethorphan (70 μM) was selected as the positive control, and reactions were terminated at various time points (0, 5, 10, 15, 30, 60 min) after incubation at 37° C. Both positive and negative control samples were included in each assay to ensure the integrity of the microsomal incubation system.
(§8) The concentrations of compounds in human or rat liver microsome incubations were plotted as a percentage of the relevant zero time point control for each reaction. The in vivo CLint were extrapolated (ref.: Naritomi, Y.; Terashita, S.; Kimura, S.; Suzuki, A.; Kagayama, A.; and Sugiyama, Y.; Prediction of human hepatic clearance from in vivo animal experiments and in vitro metabolic studies with liver microsomes from animals and humans. Drug Metab. Dispos., 2001, 29: 1316-1324).

[2] = Compound stability in human liver microsomes; type: in vitro ADME; conditions: pH 7.4; for CLint scaled at 5 μM: liver microsomes, in vivo CLint extrapolated from human liver microsome incubation; for half-life at 5 μM: human liver microsomes 0.5 mg protein/mL, compound 5 μM, NADPH 1.0 mM, 37° C., read-out: Human T1/2
Description: as §1, §2, §3, §4, §5, §6, §7, §8

[3] = Pharmacokinetic profiles in rats; type: in vivo, rat; conditions: for Cl/F / AUC(0-t) / half-life / Vd: iv dosing 1 mg/kg; for F: oral vs iv (iv 1 mg/kg; p.o. generally 5 or 10 mg/kg); for AUC(0-t) / half-life / Vd: rat, plasma; for Vd: read-out: Vss
Description: The compounds disclosed herein are assessed in pharmacokinetic studies in mice, rats, dogs or monkeys. The compounds are administered as a water solution, 2% HPMC+1% TWEEN®80 in water solution, 5% DMSO+5% solutol in saline, 4% MC suspension or capsule. For the intravenous administration, the animals are generally given at 1 or 2 mg/kg dose. For the oral (p.o.) dosing, mice and rats are generally given 5 or 10 mg/kg dose, and dogs and monkeys are generally given 10 mg/kg dose. The blood samples (0.3 mL) are drawn at 0.25, 0.5, 1.0, 2.0, 3.0, 4.0, 6.0, 8.0, 12 and 24 h time points or 0.083, 0.25, 0.5, 1.0, 2.0, 4.0, 6.0, 8.0 and 24 h time points and centrifuged at 3,000 or 4000 rpm for 2 to 10 min. The plasma solutions are collected, stored at −20° C. or −70° C. until analyzed by LC/MS/MS as described above.

PI3K (p110δ/p85α) (h), sequence (O00329 whole entry): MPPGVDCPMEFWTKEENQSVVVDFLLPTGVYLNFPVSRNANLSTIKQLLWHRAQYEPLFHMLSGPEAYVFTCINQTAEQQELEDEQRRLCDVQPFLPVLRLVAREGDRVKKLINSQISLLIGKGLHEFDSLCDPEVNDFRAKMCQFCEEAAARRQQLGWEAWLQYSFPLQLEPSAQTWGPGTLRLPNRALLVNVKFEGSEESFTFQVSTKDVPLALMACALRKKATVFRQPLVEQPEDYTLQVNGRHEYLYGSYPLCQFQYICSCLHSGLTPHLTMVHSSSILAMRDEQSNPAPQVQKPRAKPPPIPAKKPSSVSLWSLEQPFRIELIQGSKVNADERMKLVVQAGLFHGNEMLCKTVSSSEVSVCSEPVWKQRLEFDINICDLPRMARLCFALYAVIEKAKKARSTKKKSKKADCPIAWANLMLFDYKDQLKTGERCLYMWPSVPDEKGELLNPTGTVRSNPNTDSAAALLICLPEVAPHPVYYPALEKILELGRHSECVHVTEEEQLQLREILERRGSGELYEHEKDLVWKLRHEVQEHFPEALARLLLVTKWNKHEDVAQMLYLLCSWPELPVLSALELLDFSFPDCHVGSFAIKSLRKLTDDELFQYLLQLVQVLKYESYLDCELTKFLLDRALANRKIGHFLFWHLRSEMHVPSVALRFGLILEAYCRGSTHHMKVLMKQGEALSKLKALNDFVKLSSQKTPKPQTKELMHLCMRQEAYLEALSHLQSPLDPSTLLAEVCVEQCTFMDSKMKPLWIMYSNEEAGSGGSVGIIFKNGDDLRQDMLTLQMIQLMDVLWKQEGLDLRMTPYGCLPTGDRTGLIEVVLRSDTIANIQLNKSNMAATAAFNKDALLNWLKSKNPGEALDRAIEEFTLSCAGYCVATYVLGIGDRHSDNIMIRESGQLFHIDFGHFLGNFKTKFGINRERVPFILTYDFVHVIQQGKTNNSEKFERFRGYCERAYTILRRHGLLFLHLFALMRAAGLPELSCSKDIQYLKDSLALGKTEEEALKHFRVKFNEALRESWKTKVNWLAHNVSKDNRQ
PI3K (p110δ/p85α) (h), sequence (P27986 whole entry partner): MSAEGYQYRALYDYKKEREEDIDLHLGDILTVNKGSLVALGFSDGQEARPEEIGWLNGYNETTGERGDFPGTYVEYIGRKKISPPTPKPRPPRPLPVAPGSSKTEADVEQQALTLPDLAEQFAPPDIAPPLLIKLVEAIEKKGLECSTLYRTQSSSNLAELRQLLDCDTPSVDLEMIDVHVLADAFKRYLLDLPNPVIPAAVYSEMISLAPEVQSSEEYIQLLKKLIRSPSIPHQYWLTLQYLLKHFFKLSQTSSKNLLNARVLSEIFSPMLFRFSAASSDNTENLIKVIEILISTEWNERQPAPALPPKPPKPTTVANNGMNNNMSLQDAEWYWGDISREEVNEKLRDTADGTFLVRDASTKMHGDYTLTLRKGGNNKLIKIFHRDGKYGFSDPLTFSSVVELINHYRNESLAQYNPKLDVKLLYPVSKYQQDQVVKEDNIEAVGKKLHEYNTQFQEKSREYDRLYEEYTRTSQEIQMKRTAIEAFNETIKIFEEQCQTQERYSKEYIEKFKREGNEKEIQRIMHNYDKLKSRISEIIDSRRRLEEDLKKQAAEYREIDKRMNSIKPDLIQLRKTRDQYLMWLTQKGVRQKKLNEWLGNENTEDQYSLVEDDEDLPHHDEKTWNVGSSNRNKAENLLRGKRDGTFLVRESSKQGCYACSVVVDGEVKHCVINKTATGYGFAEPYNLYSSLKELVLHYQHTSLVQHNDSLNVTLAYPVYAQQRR

Row | Structure (SMILES) | IC50 (PI3K (p110δ/p85α) (h)) [nM] | CLint scaled at 5 μM [1] [mL/min/kg] | half-life at 5 μM [1] [h] | CLint scaled at 5 μM [2] [mL/min/kg] | half-life at 5 μM [2] [h] | Cl/F [3] [mL/min/kg] | F [3] [%] | AUC(0-t) [3] [ng·h/mL] | half-life [3] [h] | Vd [3] [L/kg]
1 | CC[C@H](Nc1ncnc(N)c1-c1nc(C)no1)c1cc2cccc(F)c2c(=O)n1C1CC1 [Ex. 1, (S)-3-(1-((6-amino-5-(3-methyl-1,2,4-oxadiazol-5-yl)pyrimidin-4-yl)amino)propyl)-2-cyclopropyl-8-fluoroisoquinolin-1(2H)-one] | 5 | 219 | 0.189 | 243 | 0.17 | 93 | 46.34 | 178 | 0.63 | 3.99
2 | CC[C@H](Nc1ncnc(N)c1-c1nc(C)no1)c1cc2cccc(Cl)c2c(=O)n1C1CC1 [Ex. 7, (S)-3-(1-((6-amino-5-(3-methyl-1,2,4-oxadiazol-5-yl)pyrimidin-4-yl)amino)propyl)-8-chloro-2-ccyclopropylisoquinolin-1(2H)-one] | 4 | 250 | 0.165 | 147 | 0.197 | 54.3 | 42.95 | 307 | 2.3 | 7.96
3 | C[C@H](Nc1ncnc(N)c1-c1nnn(C)n1)c1cc2cccc(Cl)c2c(=O)n1C1CC1 [Ex. 12, (S)-3-(1-((6-amino-5-(2-methyl-2H-tetrazol-5-yl)pyrimidin-4-yl)amino)ethyl)-8-chloro-2-cyclopropylisoquinolin-1(2H)-one] | 12 |  |  |  |  | 30 | 32.09 | 555 | 0.7 | 1.42
4 | C[C@H](Nc1ncnc(N)c1-c1nnn(C)n1)c1cc2cccc(-c3cnn(C)c3)c2c(=O)n1-c1ccccc1 [Ex. 29, (S)-3-(1-((6-amino-5-(2-methyl-2H-tetrazol-5-yl)pyrimidin-4-yl)amino)ethyl)-8-(1-methyl-1H-pyrazol-4-yl)-2-phenylisoquinolin-1(2H)-one] |  | 38.3 | 1.08 | 19 | 1.53 | 10 | 80.6 | 1780 | 1.3 | 0.88
5 | Cc1nc(-c2c(N)ncnc2N[C@@H](C)c2cc3cccc(-c4cnn(C)c4)c3c(=O)n2C2CC2)no1 [Ex. 34, (S)-3-(1-((6-amino-5-(5-methyl-1,2,4-oxadiazol-3-yl)pyrimidin-4-yl)amino)ethyl)-2-cyclopropyl-8-(1-methyl-1H-pyrazol-4-yl)isoquinolin-1 (2H)-one] |  | 29.9 | 1.38 | 42.4 | 0.684 | 23.7 | 96.4 | 678 | 1.54 | 2.74

Now from value to compound:

Row | IC50 (PI3K (p110δ/p85α) (h)) [nM] | CLint scaled at 5 μM [1] [mL/min/kg] | half-life at 5 μM [1] [h] | CLint scaled at 5 μM [2] [mL/min/kg] | half-life at 5 μM [2] [h] | Cl/F [3] [mL/min/kg] | F [3] [%] | AUC(0-t) [3] [ng·h/mL] | half-life [3] [h] | Vd [3] [L/kg] | Structure (SMILES)
6 | 2 | 418 | 0.099 | 840 | 0.0345 | 79 | 46.57 | 215 | 1.16 | 4.42 | CC[C@H](Nc1ncnc(N)c1-c1nc(C)no1)c1cc2cccc(C)c2c(=O)n1-c1ccccc1 [Ex. 2, (S)-3-(1-((6-amino-5-(3-methyl-1,2,4-oxadiazol-5-yl)pyrimidin-4-yl)amino)propyl)-8-methyl-2-phenylisoquinolin-1(2H)-one]
7 |  | 100 | 0.414 | 251 | 0.115 | 48.7 | 64.61 | 341 | 0.81 | 2.65 | CC[C@H](Nc1ncnc(N)c1-c1ncn(C)n1)c1cc2cccc(Cl)c2c(=O)n1C1CC1 [Ex. 20, (S)-3-(1-((6-amino-5-(1-methyl-1H-1,2,4-triazol-3-yl)pyrimidin-4-yl)amino)propyl)-8-chloro-2-cyclopropylisoquinolin-1(2H)-one]
8 |  | 26.1 | 1.59 | 18.9 | 1.54 | 17.3 | 139.0 | 934 | 2.27 | 2.9 | CC[C@H](Nc1ncnc(N)c1-c1noc(C)n1)c1cc2cccc(-c3cnn(C)c3)c2c(=O)n1C1CC1 [Ex. 31, (S)-3-(1-((6-amino-5-(5-methyl-1,2,4-oxadiazol-3-yl)pyrimidin-4-yl)amino)propyl)-2-cyclopropyl-8-(1-methyl-1H-pyrazol-4-yl)isoquinolin-1(2H)-one]
9 |  | 21.2 | 1.95 | 23.4 | 1.24 | 24.3 | 74.2 | 688 | 1.49 | 2.42 | CC[C@H](Nc1ncnc(N)c1-c1nc(C)no1)c1cc2cccc(-c3cnn(C)c3)c2c(=O)n1C1CC1 [Ex. 32, (S)-3-(1-((6-amino-5-(3-methyl-1,2,4-oxadiazol-5-yl)pyrimidin-4-yl)amino)propyl)-2-cyclopropyl-8-(1-methyl-1H-pyrazol-4-yl)isoquinolin-1(2H)-one]
10 |  | 26.7 | 1.55 | 28.4 | 1.02 | 12.7 | 163.6 | 1300 | 1.62 | 1.9 | C[C@H](Nc1ncnc(N)c1-c1nnn(C)n1)c1cc2cccc(-c3cnn(C)c3)c2c(=O)n1C1CC1 [Ex. 33, (S)-3-(1-((6-amino-5-(2-methyl-2H-tetrazol-5-yl)pyrimidin-4-yl)amino)ethyl)-2-cyclopropyl-8-(1-methyl-1-pyrazol-4-yl)isoquinolin-1 (2H)-one]
